Assay results as given in US8637509B2, “Azaindazoles” (GlaxoSmithKline LLC, priority 2010, dated 2014).

target: T1, EZH2 (Homo sapiens, UniProt Q15910); experiment: EZH2 methyltransferase SPA assay (3H-SAM, Hela nucleosomes); assay type: biochemical; conditions: not given
T1 construct: GRITS37108
T1 sequence (Q15910 whole entry): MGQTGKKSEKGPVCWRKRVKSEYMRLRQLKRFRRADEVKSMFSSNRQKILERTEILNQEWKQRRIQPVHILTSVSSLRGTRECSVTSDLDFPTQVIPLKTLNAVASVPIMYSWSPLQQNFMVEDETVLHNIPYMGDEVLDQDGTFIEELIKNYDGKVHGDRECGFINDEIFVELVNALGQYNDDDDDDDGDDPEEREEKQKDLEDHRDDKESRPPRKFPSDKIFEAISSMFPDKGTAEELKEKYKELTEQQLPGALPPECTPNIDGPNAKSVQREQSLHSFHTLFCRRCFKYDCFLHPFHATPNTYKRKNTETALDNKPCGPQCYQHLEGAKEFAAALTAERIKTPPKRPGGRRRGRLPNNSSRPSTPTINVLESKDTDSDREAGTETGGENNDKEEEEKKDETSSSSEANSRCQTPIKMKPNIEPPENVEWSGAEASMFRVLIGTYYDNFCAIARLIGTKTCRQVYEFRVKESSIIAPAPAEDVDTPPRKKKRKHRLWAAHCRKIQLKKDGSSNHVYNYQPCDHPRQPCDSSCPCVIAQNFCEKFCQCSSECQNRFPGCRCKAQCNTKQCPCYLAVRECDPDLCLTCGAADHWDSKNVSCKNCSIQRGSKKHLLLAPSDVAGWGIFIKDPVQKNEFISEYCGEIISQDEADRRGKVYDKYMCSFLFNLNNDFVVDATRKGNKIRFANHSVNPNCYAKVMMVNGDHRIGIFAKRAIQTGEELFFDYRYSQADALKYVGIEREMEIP
T1 sequence (O75530 whole entry partner): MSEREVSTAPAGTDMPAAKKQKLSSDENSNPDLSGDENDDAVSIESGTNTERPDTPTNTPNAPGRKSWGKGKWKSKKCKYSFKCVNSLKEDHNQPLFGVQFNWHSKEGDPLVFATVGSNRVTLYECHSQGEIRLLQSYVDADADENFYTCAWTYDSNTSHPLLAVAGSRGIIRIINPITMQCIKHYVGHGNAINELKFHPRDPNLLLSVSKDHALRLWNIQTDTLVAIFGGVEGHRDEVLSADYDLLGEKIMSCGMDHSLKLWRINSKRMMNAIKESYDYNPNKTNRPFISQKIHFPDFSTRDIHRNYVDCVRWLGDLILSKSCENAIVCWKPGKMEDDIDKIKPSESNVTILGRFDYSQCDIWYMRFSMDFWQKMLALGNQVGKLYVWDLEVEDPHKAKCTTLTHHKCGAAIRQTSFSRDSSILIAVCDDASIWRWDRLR
T1 sequence (Q15022 whole entry partner): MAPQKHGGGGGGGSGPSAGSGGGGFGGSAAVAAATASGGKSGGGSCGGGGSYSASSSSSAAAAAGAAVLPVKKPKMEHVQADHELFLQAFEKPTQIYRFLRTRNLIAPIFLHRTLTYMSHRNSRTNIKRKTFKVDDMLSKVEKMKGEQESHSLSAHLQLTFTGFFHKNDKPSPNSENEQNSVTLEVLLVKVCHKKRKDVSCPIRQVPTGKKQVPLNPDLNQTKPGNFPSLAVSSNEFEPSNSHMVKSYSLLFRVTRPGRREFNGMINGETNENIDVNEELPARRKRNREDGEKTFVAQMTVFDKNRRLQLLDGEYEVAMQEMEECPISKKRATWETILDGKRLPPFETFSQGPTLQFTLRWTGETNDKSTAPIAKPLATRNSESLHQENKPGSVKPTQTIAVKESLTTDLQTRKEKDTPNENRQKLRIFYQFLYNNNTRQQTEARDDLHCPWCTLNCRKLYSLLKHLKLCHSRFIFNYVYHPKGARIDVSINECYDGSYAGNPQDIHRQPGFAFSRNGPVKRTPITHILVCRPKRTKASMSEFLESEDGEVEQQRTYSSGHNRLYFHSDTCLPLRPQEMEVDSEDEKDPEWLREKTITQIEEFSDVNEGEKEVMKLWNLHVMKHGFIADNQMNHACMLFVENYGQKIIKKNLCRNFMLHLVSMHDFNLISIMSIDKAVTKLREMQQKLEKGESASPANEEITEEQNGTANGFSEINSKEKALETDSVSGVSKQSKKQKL

IC50	Compound
18 nM	CCCc1cc(C)[nH]c(=O)c1CNC(=O)c1cc(-c2ccncc2)nc2c1cnn2C(C)C [Ex 11, 1-(1-Methylethyl)-N-[(6-methyl-2-oxo-4-propyl-1,2-dihydro-3-pyridinyl)methyl]-6-(4-pyridinyl)-1H-pyrazolo[3,4-b]pyridine-4-carboxamide]

same assay, conditions: 10 nM EZH2, 7 μg/ml Hela nucleosomes, 2-parameter IC50 fit; single-point-in-time values; read-out: IC50

Compound	IC50
N-[(4,6-Dimethyl-2-oxo-1,2-dihydro-3-pyridinyl)methyl]-1-(1-methylethyl)-6-(2-phenylethyl)-1H-pyrazolo[3,4-b]pyridine-4-carboxamide [Ex 32]	856 nM

same assay, conditions: read-out: IC50

Compound	IC50
Cc1cc(C)c(CNC(=O)c2cc(-c3ccncc3)nc3c2cnn3C(C)C)c(=O)[nH]1 [Ex 114, N-[(4,6-Dimethyl-2-oxo-1,2-dihydro-3-pyridinyl)methyl]-1-(1-methylethyl)-6-(4-pyridinyl)-1H-pyrazolo[3,4-b]pyridine-4-carboxamide]	199 nM
CCCc1cc(C)c(CNC(=O)c2cc(-c3ccncc3)nc3c2cnn3C(C)C)c(=O)[nH]1 [Ex 9, 1-(1-Methylethyl)-N-[(4-methyl-2-oxo-6-propyl-1,2-dihydro-3-pyridinyl)methyl]-6-(4-pyridinyl)-1H-pyrazolo[3,4-b]pyridine-4-carboxamide]	1310 nM
Cc1cc(C)c(CNC(=O)c2cc(N)nc3c2cnn3C(C)C)c(=O)[nH]1 [Ex 6, 6-Amino-N-[(4,6-dimethyl-2-oxo-1,2-dihydro-3-pyridinyl)methyl]-1-(1-methylethyl)-1H-pyrazolo[3,4-b]pyridine-4-carboxamide]	695 nM
CCNc1cc(C(=O)NCc2c(C)cc(C)[nH]c2=O)c2cnn(C(C)C)c2n1 [Ex 21, N-[(4,6-Dimethyl-2-oxo-1,2-dihydro-3-pyridinyl)methyl]-6-(ethylamino)-1-(1-methylethyl)-1H-pyrazolo[3,4-b]pyridine-4-carboxamide]	1040 nM
Cc1cc(C)c(CNC(=O)c2cc(NC3CCOCC3)nc3c2cnn3C(C)C)c(=O)[nH]1 [Ex 54, N-[(4,6-Dimethyl-2-oxo-1,2-dihydro-3-pyridinyl)methyl]-1-(1-methylethyl)-6-(tetrahydro-2H-pyran-4-ylamino)-1H-pyrazolo[3,4-b]pyridine-4-carboxamide]	514 nM
Cc1cc(-c2ccccc2)c(CNC(=O)c2cc(C3CC3)nc3c2cnn3C(C)C)c(=O)[nH]1 [Ex 17, 6-Cyclopropyl-1-(1-methylethyl)-N-[(6-methyl-2-oxo-4-phenyl-1,2-dihydro-3-pyridinyl)methyl]-1H-pyrazolo[3,4-b]pyridine-4-carboxamide]	2590 nM
C=CCNc1cc(C(=O)NCc2c(C)cc(C)[nH]c2=O)c2cnn(C(C)C)c2n1 [Ex 5, N-[(4,6-Dimethyl-2-oxo-1,2-dihydro-3-pyridinyl)methyl]-1-(1-methylethyl)-6-(2-propen-1-ylamino)-1H-pyrazolo[3,4-b]pyridine-4-carboxamide]	705 nM
Cc1cc(C)c(CNC(=O)c2cc(-c3ccc4[nH]ncc4c3)nc3c2cnn3C(C)C)c(=O)[nH]1 [Ex 74, N-[(4,6-Dimethyl-2-oxo-1,2-dihydro-3-pyridinyl)methyl]-6-(1H-indazol-5-yl)-1-(1-methylethyl)-1H-pyrazolo[3,4-b]pyridine-4-carboxamide]	151 nM
Cc1cc(C)c(CNC(=O)c2cc(-c3cccc(N)c3)nc3c2cnn3C(C)C)c(=O)[nH]1 [Ex 45, 6-(3-aminophenyl)-N-[(4,6-dimethyl-2-oxo-1,2-dihydro-3-pyridinyl)methyl]-1-(1-methylethyl)-1H-pyrazolo[3,4-b]pyridine-4-carboxamide]	248 nM
Cc1cc(C)c(CNC(=O)c2cc(N(C)C)nc3c2cnn3C(C)C)c(=O)[nH]1 [Ex 24, 6-(Dimethylamino)-N-[(4,6-dimethyl-2-oxo-1,2-dihydro-3-pyridinyl)methyl]-1-(1-methylethyl)-1H-pyrazolo[3,4-b]pyridine-4-carboxamide]	873 nM
Cc1cc(C)c(CNC(=O)c2cc(C3CC3)nc3c2c(C)nn3C2CCC2)c(=O)[nH]1 [Ex 105, 1-Cyclobutyl-6-cyclopropyl-N-[(4,6-dimethyl-2-oxo-1,2-dihydro-3-pyridinyl)methyl]-3-methyl-1H-pyrazolo[3,4-b]pyridine-4-carboxamide]	315 nM
Cc1cc(C)c(CNC(=O)c2cc(-c3c[nH]c(=O)[nH]c3=O)nc3c2cnn3C(C)C)c(=O)[nH]1 [Ex 48, N-[(4,6-Dimethyl-2-oxo-1,2-dihydro-3-pyridinyl)methyl]-6-(2,4-dioxo-1,2,3,4-tetrahydro-5-pyrimidinyl)-1-(1-methylethyl)-1H-pyrazolo[3,4-b]pyridine-4-carboxamide]	198 nM
Cc1cc(C)c(CNC(=O)c2cc(-c3ccc4nonc4c3)nc3c2c(C)nn3C(C)C)c(=O)[nH]1 [Ex 90, 6-(2,1,3-Benzoxadiazol-5-yl)-N-[(4,6-dimethyl-2-oxo-1,2-dihydro-3-pyridinyl)methyl]-3-methyl-1-(1-methylethyl)-1H-pyrazolo[3,4-b]pyridine-4-carboxamide]	173 nM
Cc1cc(C)c(CNC(=O)c2cc(C#Cc3ccccc3)nc3c2cnn3C(C)C)c(=O)[nH]1 [Ex 31, N-[(4,6-Dimethyl-2-oxo-1,2-dihydro-3-pyridinyl)methyl]-1-(1-methylethyl)-6-(phenylethynyl)-1H-pyrazolo[3,4-b]pyridine-4-carboxamide]	232 nM
Cc1cc(C)c(CNC(=O)c2cc(C3CC3)nc3c2c(C)nn3C2CCOCC2)c(=O)[nH]1 [Ex 112, 6-Cyclopropyl-N-[(4,6-dimethyl-2-oxo-1,2-dihydro-3-pyridinyl)methyl]-3-methyl-1-(tetrahydro-2H-pyran-4-yl)-1H-pyrazolo[3,4-b]pyridine-4-carboxamide]	693 nM
Cc1cc(C(=O)NCc2c(C)cc(C)[nH]c2=O)c2cnn(Cc3ccccc3)c2n1 [Ex 100, N-[(4,6-Dimethyl-2-oxo-1,2-dihydro-3-pyridinyl)methyl]-6-methyl-1-(phenylmethyl)-1H-pyrazolo[3,4-b]pyridine-4-carboxamide]	5750 nM
Cc1cc(C(F)(F)F)c(CNC(=O)c2cc(C3CC3)nc3c2cnn3C(C)C)c(=O)[nH]1 [Ex 23, 6-Cyclopropyl-1-(1-methylethyl)-N-{[6-methyl-2-oxo-4-(trifluoromethyl)-1,2-dihydro-3-pyridinyl]methyl}-1H-pyrazolo[3,4-b]pyridine-4-carboxamide]	1430 nM
Cc1cc(C)c(CNC(=O)c2cc(-c3ccc(N)cc3)nc3c2cnn3C(C)C)c(=O)[nH]1 [Ex 43, 6-(4-Aminophenyl)-N-[(4,6-dimethyl-2-oxo-1,2-dihydro-3-pyridinyl)methyl]-1-(1-methylethyl)-1H-pyrazolo[3,4-b]pyridine-4-carboxamide]	204 nM
Cc1cc(C)c(CNC(=O)c2cc(-c3cnc(N)nc3)nc3c2cnn3C(C)C)c(=O)[nH]1 [Ex 72, 6-(2-Amino-5-pyrimidinyl)-N-[(4,6-dimethyl-2-oxo-1,2-dihydro-3-pyridinyl)methyl]-1-(1-methylethyl)-1H-pyrazolo[3,4-b]pyridine-4-carboxamide]	171 nM

Continued, values first:

IC50	Compound
140 nM	Cc1cc(C)c(CNC(=O)c2cc(-c3ccc4c(c3)CC(=O)N4)nc3c2cnn3C(C)C)c(=O)[nH]1 [Ex 79, N-[(4,6-Dimethyl-2-oxo-1,2-dihydro-3-pyridinyl)methyl]-1-(1-methylethyl)-6-(2-oxo-2,3-dihydro-1H-indol-5-yl)-1H-pyrazolo[3,4-b]pyridine-4-carboxamide]
131 nM	Cc1cc(C)c(CNC(=O)c2cc(-c3ccc4cn[nH]c4c3)nc3c2cnn3C(C)C)c(=O)[nH]1 [Ex 75, N-[(4,6-Dimethyl-2-oxo-1,2-dihydro-3-pyridinyl)methyl]-6-(1H-indazol-6-yl)-1-(1-methylethyl)-1H-pyrazolo[3,4-b]pyridine-4-carboxamide]
116 nM	Cc1cc(C)c(CNC(=O)c2cc(Oc3ccncc3)nc3c2cnn3C(C)C)c(=O)[nH]1 [Ex 4, N-[(4,6-Dimethyl-2-oxo-1,2-dihydro-3-pyridinyl)methyl]-1-(1-methylethyl)-6-(4-pyridinyloxy)-1H-pyrazolo[3,4-b]pyridine-4-carboxamide]
83 nM	CC(=O)Nc1ccc(-c2cc(C(=O)NCc3c(C)cc(C)[nH]c3=O)c3c(C)nn(C(C)C)c3n2)cc1 [Ex 93, 6-[4-(Acetylamino)phenyl]-N-[(4,6-dimethyl-2-oxo-1,2-dihydro-3-pyridinyl)methyl]-3-methyl-1-(1-methylethyl)-1H-pyrazolo[3,4-b]pyridine-4-carboxamide]
76 nM	COc1ccc(-c2cc(C(=O)NCc3c(C)cc(C)[nH]c3=O)c3cnn(C(C)C)c3n2)cn1 [Ex 68, N-[(4,6-Dimethyl-2-oxo-1,2-dihydro-3-pyridinyl)methyl]-1-(1-methylethyl)-6-[6-(methyloxy)-3-pyridinyl]-1H-pyrazolo[3,4-b]pyridine-4-carboxamide]
58 nM	Cc1cc(C)c(CNC(=O)c2cc(-c3ccc(N4CCOCC4)nc3)nc3c2cnn3C(C)C)c(=O)[nH]1 [Ex 67, N-[(4,6-Dimethyl-2-oxo-1,2-dihydro-3-pyridinyl)methyl]-1-(1-methylethyl)-6-[6-(4-morpholinyl)-3-pyridinyl]-1H-pyrazolo[3,4-b]pyridine-4-carboxamide]
55 nM	CCCc1cc(C)[nH]c(=O)c1CNC(=O)c1cc(C2CC2)nc2c1cnn2C(C)C [Ex 13, 6-Cyclopropyl-1-(1-methylethyl)-N-[(6-methyl-2-oxo-4-propyl-1,2-dihydro-3-pyridinyl)methyl]-1H-pyrazolo[3,4-b]pyridine-4-carboxamide]
31 nM	Cc1cc(C)c(CNC(=O)c2cc(Nc3ccc4[nH]c(=O)[nH]c4c3)nc3c2cnn3C(C)C)c(=O)[nH]1 [Ex 85, N-[(4,6-Dimethyl-2-oxo-1,2-dihydro-3-pyridinyl)methyl]-1-(1-methylethyl)-6-[(2-oxo-2,3-dihydro-1H-benzimidazol-5-yl)amino]-1H-pyrazolo[3,4-b]pyridine-4-carboxamide]
25 nM	CC(=O)Nc1ccc(-c2cc(C(=O)NCc3c(C)cc(C)[nH]c3=O)c3cnn(C(C)C)c3n2)cn1 [Ex 69, 6-[6-(Acetylamino)-3-pyridinyl]-N-[(4,6-dimethyl-2-oxo-1,2-dihydro-3-pyridinyl)methyl]-1-(1-methylethyl)-1H-pyrazolo[3,4-b]pyridine-4-carboxamide]
